Experimental findings from US20240409585A1, “MACROCYCLIC IMMUNOMODULATORS” (priority 2021, published 2024) are described below.

What is called IC50 is the concentration that gives 50% inhibition.

Each structure is given as a SMILES string. Bridge positions count the residues as written; N and C are the ends. Square brackets hold non-standard residues; d marks the D form. Peptide text beside a SMILES is read from it. * marks the point of attachment. ξ: configuration not given here. Phe(4-COOH) = N[C@@H](Cc1ccc(C(=O)O)cc1)C(=O)O; Trp(2-Me) = Cc1[nH]c2ccccc2c1C[C@H](N)C(=O)O; Bip = N[C@@H](Cc1ccc(-c2ccccc2)cc1)C(=O)O; Phe(3-Me) = Cc1cccc(C[C@H](N)C(=O)O)c1; 1Nal = N[C@@H](Cc1cccc2ccccc12)C(=O)O; Bta = N[C@@H](Cc1csc2ccccc12)C(=O)O; Val(3-OH) = CC(C)(O)[C@H](N)C(=O)O; 4Pal = N[C@@H](Cc1ccncc1)C(=O)O; Cha = N[C@@H](CC1CCCCC1)C(=O)O; Cit = NC(=O)NCCC[C@H](N)C(=O)O; Ile(3ξ) = CCC(C)[C@H](N)C(=O)O; Thr(3ξ) = CC(O)[C@H](N)C(=O)O; Carboxymethyl = O=C(O)C*; NMeA = CN[C@@H](C)C(=O)O; Orn = NCCC[C@H](N)C(=O)O; Dab = NCC[C@H](N)C(=O)O; Dap = NC[C@H](N)C(=O)O

The test has as its target T1, PE-labeled human PD-L1-Ig binding to Jurkat cell line over-expressing human PD-1 (Jurkat-PD-1) (Homo sapiens, UniProt Q15116).
T1 construct: expressed in transfected cells; host or cells: Jurkat
Nature of the test: Jurkat-PD-1 Cell Binding High-Content Screening Assay (CBA): Method 1. The note with it: Jurkat-hPD-1 cells, PE-labeled PD-L1-Ig 20 nM final; read-out: Jurkat HPDL1 PD1 IC50 (uM) (Method 1).

T1 sequence (Q15116 25-288): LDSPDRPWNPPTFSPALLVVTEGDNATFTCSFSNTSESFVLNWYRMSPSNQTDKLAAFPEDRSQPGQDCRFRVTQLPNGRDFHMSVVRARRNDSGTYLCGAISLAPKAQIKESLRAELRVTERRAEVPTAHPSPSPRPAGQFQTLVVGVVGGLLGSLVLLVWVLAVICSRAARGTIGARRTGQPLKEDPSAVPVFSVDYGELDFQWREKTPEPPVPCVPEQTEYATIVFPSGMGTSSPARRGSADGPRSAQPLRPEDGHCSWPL

As to `CC(C)C[C@@H]1NC(=O)[C@H](Cc2c[nH]c3ccccc23)NC(=O)[C@H](CC(=O)O)NC(=O)[C@H](Cc2ccc(O)cc2)NC(=O)[C@H](Cc2ccccc2)NC(=O)CSC[C@@H](C(=O)NCC(N)=O)NC(=O)[C@H](CO)NC(=O)[C@H](C(C)C)NC(=O)[C@H](CC(C)C)NC(=O)[C@H](CC(N)=O)NC(=O)[C@@H](Cc2cnc[nH]2)NC(=O)[C@H](C)N(C)C(=O)[C@H](C(C)C)NC(=O)[C@H](Cc2ccc(-c3ccccc3)cc2)NC1=O` [Compound 1797] ({CH2CO}-FYDWL[Bip]V[NMeA][dH]NLVSCG-NH2; thioether N-14), the IC50 is 0.16 µM.

For `CCC(C)[C@@H]1NC(=O)[C@H](Cc2ccc(-c3ccccc3)cc2)NC(=O)[C@H](CC(C)C)NC(=O)[C@H](Cc2c[nH]c3ccccc23)NC(=O)[C@H](CC(=O)O)NC(=O)[C@H](Cc2ccc(C(=O)O)cc2)NC(=O)[C@H](Cc2ccc(OCC(=O)O)cc2)NC(=O)CSC[C@@H](C(=O)N[C@@H](CCN)C(N)=O)NC(=O)[C@H](CO)NC(=O)[C@H](C(C)C)NC(=O)[C@H](CC2CCCCC2)NC(=O)[C@H](CCN)NC(=O)[C@@H](CC(C)C)NC(=O)[C@H](C)N(C)C1=O` (stereo partly drawn) [Compound 1910] ({CH2CO}-Y(Carboxymethyl)[Phe(4-COOH)]DWL[Bip][Ile(3ξ)][NMeA][dL][Dab][Cha]VSC[Dab]-NH2; thioether N-14), the IC50 was 0.02 µM.

Turning to `CC(C)C[C@H]1NC(=O)[C@H](C)N(C)C(=O)[C@H](CCCNC(N)=O)NC(=O)[C@H](Cc2ccc(-c3ccccc3)cc2)NC(=O)[C@H](C(C)C)NC(=O)[C@H](Cc2c[nH]c3ccccc23)NC(=O)[C@H](CC(=O)O)NC(=O)[C@H](Cc2ccc(O)cc2)NC(=O)[C@H](CN)NC(=O)CSC[C@@H](C(=O)N[C@@H](C)C(N)=O)NC(=O)[C@H]([C@@H](C)O)NC(=O)[C@H](C(C)C)NC(=O)[C@H](CC2CCCCC2)NC(=O)[C@H](CCCNC(=N)N)NC1=O` [Compound 1503] ({CH2CO}-[Dap]YDWV[Bip][Cit][NMeA][dL]R[Cha]VTCA-NH2; thioether N-14), the IC50 turned out to be 0.01 µM.

In the case of `CC(C)C[C@@H]1NC(=O)[C@H](CCN)NC(=O)[C@@H](CC(C)C)NC(=O)[C@H](C)N(C)C(=O)[C@H](CCC(=O)O)NC(=O)[C@H](Cc2ccc(-c3ccccc3)cc2)NC(=O)[C@H](C(C)C)NC(=O)[C@H](Cc2c[nH]c3ccccc23)NC(=O)[C@H](CC(N)=O)NC(=O)[C@H](Cc2ccc(O)cc2)NC(=O)[C@H](Cc2ccncc2)NC(=O)CSC[C@@H](C(=O)N[C@@H](C)C(N)=O)NC(=O)[C@H](C(C)O)NC(=O)[C@H](C(C)C)NC1=O` (stereo partly drawn) [Compound 2056] ({CH2CO}-[4Pal]YNWV[Bip]E[NMeA][dL][Dab]LV[Thr(3ξ)]CA-NH2; thioether N-14), the IC50 was 0.04 µM.

Regarding `CC(C)C[C@@H]1NC(=O)[C@H](Cc2c[nH]c3ccccc23)NC(=O)[C@H](CC(=O)O)NC(=O)[C@H](Cc2ccc(OCC(=O)O)cc2)NC(=O)[C@H](Cc2ccccc2)NC(=O)CSC[C@@H](C(=O)N[C@@H](CC(N)=O)C(N)=O)NC(=O)[C@H](CO)NC(=O)[C@H](C(C)C)NC(=O)[C@H](CC(C)C)NC(=O)[C@H](CCN)NC(=O)[C@@H](CC(C)C)NC(=O)[C@H](C)N(C)C(=O)[C@H](Cc2cnc[nH]2)NC(=O)[C@H](Cc2ccc(-c3ccccc3)cc2)NC1=O` [Compound 2096] ({CH2CO}-FY(Carboxymethyl)DWL[Bip]H[NMeA][dL][Dab]LVSCN-NH2; thioether N-14), the IC50 amounted to 0.04 µM.

For the compound `CC(C)C[C@@H]1NC(=O)[C@H](CCN)NC(=O)[C@H](Cc2csc3ccccc23)NC(=O)[C@H](C)N(C)C(=O)[C@H](CCCN)NC(=O)[C@H](Cc2ccc(-c3ccccc3)cc2)NC(=O)[C@H](C(C)C)NC(=O)[C@H](Cc2c[nH]c3ccccc23)NC(=O)[C@H](CC(=O)O)NC(=O)[C@H](Cc2ccc(O)cc2)NC(=O)[C@H](Cc2ccccc2)NC(=O)CSC[C@@H](C(=O)N[C@@H](C)C(N)=O)NC(=O)[C@H]([C@@H](C)O)NC(=O)[C@H](C(C)C)NC1=O` [Compound 1122] ({CH2CO}-FYDWV[Bip][Orn][NMeA][Bta][Dab]LVTCA-NH2; thioether N-14), the IC50 came out at 0.24 µM.

As to `CC(C)C[C@@H]1NC(=O)[C@H](CCN)NC(=O)[C@@H](CC(C)C)NC(=O)[C@H](C)N(C)C(=O)[C@H](CCCNC(N)=O)NC(=O)[C@H](Cc2ccc(-c3ccccc3)cc2)NC(=O)[C@H](C(C)C)NC(=O)[C@H](Cc2c[nH]c3ccccc23)NC(=O)[C@H](CC(=O)O)NC(=O)[C@H](Cc2ccc(OCC(=O)O)cc2)NC(=O)[C@H](Cc2ccc(OCC(=O)O)cc2)NC(=O)CSC[C@@H](C(=O)N[C@@H](C)C(N)=O)NC(=O)[C@H]([C@@H](C)O)NC(=O)[C@H](C(C)C)NC1=O` [Compound 1569] ({CH2CO}-Y(Carboxymethyl)Y(Carboxymethyl)DWV[Bip][Cit][NMeA][dL][Dab]LVTCA-NH2; thioether N-14), the IC50 is 0.04 µM.

Take `CC(C)C[C@@H]1NC(=O)[C@H](Cc2c[nH]c3ccccc23)NC(=O)[C@H](CC(=O)O)NC(=O)[C@H](Cc2ccc(C(=O)O)cc2)NC(=O)[C@H](Cc2cnc[nH]2)NC(=O)CSC[C@@H](C(=O)N[C@@H](C)C(N)=O)NC(=O)[C@H](CO)NC(=O)[C@H](C(C)C)NC(=O)[C@H](CC(C)C)NC(=O)[C@H](CC(N)=O)NC(=O)[C@@H](C)NC(=O)[C@H](C)N(C)C(=O)[C@H](C(C)C)NC(=O)[C@H](Cc2ccc(-c3ccccc3)cc2)NC1=O` [Compound 1760] ({CH2CO}-H[Phe(4-COOH)]DWL[Bip]V[NMeA][dA]NLVSCA-NH2; thioether N-14): the IC50 came out at 0.03 µM.

Take `CC(C)C[C@@H]1NC(=O)[C@H](CCCNC(=N)N)NC(=O)[C@@H](CC(C)C)NC(=O)[C@H](C)N(C)C(=O)[C@H](CCCNC(=N)N)NC(=O)[C@H](Cc2ccc(-c3ccccc3)cc2)NC(=O)[C@H](C(C)C)NC(=O)[C@H](Cc2cccc3ccccc23)NC(=O)[C@H](CC(=O)O)NC(=O)[C@H](Cc2ccc(O)cc2)NC(=O)[C@H](CC(N)=O)NC(=O)CSC[C@@H](C(=O)N[C@@H](C)C(N)=O)NC(=O)[C@H]([C@@H](C)O)NC(=O)[C@H](C(C)C)NC1=O` [Compound 1126] ({CH2CO}-NYD[1Nal]V[Bip]R[NMeA][dL]RLVTCA-NH2; thioether N-14): the IC50 came to 0.23 µM.

`CC(C)C[C@@H]1NC(=O)[C@H](CCCNC(=N)N)NC(=O)[C@@H](CC(C)C)NC(=O)[C@H](C)N(C)C(=O)[C@H](C(C)C)NC(=O)[C@H](Cc2ccc(-c3ccccc3)cc2)NC(=O)[C@H](C(C)C)NC(=O)[C@H](Cc2c[nH]c3ccccc23)NC(=O)[C@H](CC(=O)O)NC(=O)[C@H](Cc2ccc(O)cc2)NC(=O)[C@H](CC(N)=O)NC(=O)CSC[C@@H](C(=O)N[C@@H](C)C(N)=O)NC(=O)[C@H]([C@@H](C)O)NC(=O)[C@H](C(C)C)NC1=O` [Compound 1216] ({CH2CO}-NYDWV[Bip]V[NMeA][dL]RLVTCA-NH2; thioether N-14): the half-maximal inhibitory concentration (IC50) worked out at 0.03 µM.

Take `Cc1[nH]c2ccccc2c1C[C@@H]1NC(=O)[C@H](CC(=O)O)NC(=O)[C@H](Cc2ccc(O)cc2)NC(=O)[C@H](Cc2ccccc2)NC(=O)CSC[C@@H](C(=O)N[C@@H](C)C(N)=O)NC(=O)[C@H]([C@@H](C)O)NC(=O)[C@H](C(C)C)NC(=O)[C@H](CC(C)C)NC(=O)[C@H](CCN)NC(=O)[C@@H](CC(C)C)NC(=O)[C@H](C)N(C)C(=O)[C@H](CCCNC(=N)N)NC(=O)[C@H](Cc2ccc(-c3ccccc3)cc2)NC(=O)[C@H](C(C)C)NC1=O` [Compound 1202] ({CH2CO}-FYD[Trp(2-Me)]V[Bip]R[NMeA][dL][Dab]LVTCA-NH2; thioether N-14): the IC50 stood at 0.73 µM.

With `Cc1cccc(C[C@@H]2NC(=O)[C@H](CC(=O)O)NC(=O)[C@H](Cc3ccc(C(=O)O)cc3)NC(=O)[C@H](Cc3ccncc3)NC(=O)CSC[C@@H](C(=O)N[C@@H](CCN)C(N)=O)NC(=O)[C@H](CO)NC(=O)[C@H](C(C)(C)O)NC(=O)[C@H](CC3CCCCC3)NC(=O)[C@H](CCN)NC(=O)[C@@H](CC(C)C)NC(=O)[C@H](C)N(C)C(=O)[C@H](Cc3ccc(C(=O)O)cc3)NC(=O)[C@H](Cc3ccc(-c4ccccc4)cc3)NC(=O)[C@H](Cc3ccc(OCC(=O)O)cc3)NC2=O)c1` [Compound 2184] ({CH2CO}-[4Pal][Phe(4-COOH)]D[Phe(3-Me)]Y(Carboxymethyl)[Bip][Phe(4-COOH)][NMeA][dL][Dab][Cha][Val(3-OH)]SC[Dab]-NH2; thioether N-14), the IC50 is 0.04 µM.

For `CC(C)C[C@@H]1NC(=O)[C@H](CCCNC(=N)N)NC(=O)[C@H](Cc2csc3ccccc23)NC(=O)[C@H](C)N(C)C(=O)[C@H](CCC(=O)O)NC(=O)[C@H](Cc2ccc(-c3ccccc3)cc2)NC(=O)[C@H](C(C)C)NC(=O)[C@H](Cc2c[nH]c3ccccc23)NC(=O)[C@H](CC(=O)O)NC(=O)[C@H](Cc2ccc(O)cc2)NC(=O)[C@H](Cc2ccccc2)NC(=O)CSC[C@@H](C(=O)N[C@@H](C)C(N)=O)NC(=O)[C@H]([C@@H](C)O)NC(=O)[C@H](C(C)C)NC1=O` [Compound 1133] ({CH2CO}-FYDWV[Bip]E[NMeA][Bta]RLVTCA-NH2; thioether N-14), the IC50 was 0.35 µM.

Consider `Cc1cccc(C[C@@H]2NC(=O)[C@H](CC(=O)O)NC(=O)[C@H](Cc3ccc(O)cc3)NC(=O)[C@H](CC(N)=O)NC(=O)CSC[C@@H](C(=O)N[C@H](C)C(N)=O)NC(=O)[C@H](CCC(=O)O)NC(=O)[C@H](C(C)C)NC(=O)[C@H](CC3CCCCC3)NC(=O)[C@H](CCN)NC(=O)[C@@H](CC(C)C)NC(=O)[C@H](C)N(C)C(=O)[C@H](CCCNC(N)=O)NC(=O)[C@H](Cc3ccc(-c4ccccc4)cc3)NC(=O)[C@H](C(C)(C)O)NC2=O)c1` [Compound 1710] ({CH2CO}-NYD[Phe(3-Me)][Val(3-OH)][Bip][Cit][NMeA][dL][Dab][Cha]VEC[dA]-NH2; thioether N-14), for which the IC50 was found to be 0.11 µM.

Consider `CC(C)C[C@@H]1NC(=O)[C@H](Cc2c[nH]c3ccccc23)NC(=O)[C@H](CC(=O)O)NC(=O)[C@H](Cc2ccc(O)cc2)NC(=O)[C@H](Cc2ccccc2)NC(=O)CSC[C@@H](C(=O)NCC(N)=O)NC(=O)[C@H](CO)NC(=O)[C@H](C(C)C)NC(=O)[C@H](CC(C)C)NC(=O)[C@H](CC(N)=O)NC(=O)[C@@H](CC(C)C)NC(=O)[C@H](C)N(C)C(=O)[C@H](CCC(=O)O)NC(=O)[C@H](Cc2ccc(-c3ccccc3)cc2)NC1=O` [Compound 1510] ({CH2CO}-FYDWL[Bip]E[NMeA][dL]NLVSCG-NH2; thioether N-14), for which the half-inhibitory concentration (IC50) was 0.06 µM.
